Measured values: patent US9790211B2, “5-amino-quinoline-8-carboxamide derivatives as 5-HT4 receptor agonists” (SUVEN LIFE SCIENCES LIMITED, priority 2013, dated 2017)

Tests used:
[1] = system: sAPPα; assay: Estimation of mice brain cortical sAPPα levels (ELISA); assay type: in vivo; settings: s.c., 60 minutes post treatment
Procedure: The control group of mice received sterile water for injection subcutaneously (s.c.). […] Mice were sacrificed 60 minutes after the drug injection by cervical dislocation, the brains were quickly isolated and the cortex was dissected at −20° C. The cortex was immediately kept on a dry ice and weighed before being stored at −80° C. until Enzyme-linked immunosorbent assay (ELISA) was performed. • 1. Brain tissues were thawed and Tris Buffer Saline containing protease inhibitors (TBS, 4 times by volume) added (0.8 mL/200 mg tissues). • 2. Brain tissue samples were homogenized using glass-Teflon homogenizer at 10 strokes. The resulting homogenates were centrifuged at 15,000 rpm at 4° C. for 60 minutes. • 3. The supernatant was discarded and to the precipitate, 4 times volume (0.8 mL/200 mg tissues) of TBS was added. Again homogenized followed by centrifugation at 15,000 rpm 4° C. for 30 minutes. • 4. From the above centrifuged mixture the supernatant was discarded and 10 times volume of 6M Guanidine-HCl in 50 mM Tris buffer pH: 7.6 (500 μL/50 mg tissues) was added. The resulting solution was sonicated for 5 seconds, 4 times. • 5. Resulting mixture was incubated at the RT for 30 minutes, followed by centrifugation at 15,000 rpm, 4° C. for 30 minutes. From this 5 μL of supernatant solution was taken and diluted with 155 μL of EIA buffer (dilution factor 32). Measurement of sAPPα by ELISA Kit: To investigate the role of an acute treatment of test compound on sAPPα levels, we measured the expression of this protein in homogenates from the cortex of treated and untreated mice by ELISA assay. The entire procedure was followed as described in the ELISA kit manual (Mouse/Rat sAPPα ELISA, Catalog Number: JP27415, […], Hamburg, Germany). Statistical analyses were performed using the Graph Pad Prism (Version 4). Data are Mean±SD of sAPPa levels expressed as percentage of control values (mice which received water for injection). Values were compared between the different groups by using unpaired t test. The significance level was set at *p<0.05; […]; ***<0.001.

[2] = system: acetylcholine levels in the frontal cortex; assay: Modulation of acetylcholine from the frontal cortex (microdialysis); assay type: in vivo, male Wistar rats; settings: p.o.
Source text: Male Wistar rats (240-300 gram body weights) were stereotaxically implanted with a microdialysis guide cannula in the frontal cortex (AP: +3.2 mm, ML: −3.2 mm, DV: −1.5 mm). Co-ordinates were taken according to Paxinos and Watson (2007) with reference points taken from bregma and vertical from the skull. The rats were allowed to recover individually for five days in a round bottom Plexiglas bowl with free access to feed and water.
One day prior to the microdialysis experiment, rats were connected to a dual quartz lined two-channel liquid swivel (Instech. UK) on a counter balance lever arm, which allowed unrestricted movements of the animal. […]
On the day of study, probe was perfused at a constant flow rate of 1.5 (μL/min with artificial cerebrospinal fluid (aCSF; NaCl 147 mM. KCl 3.0 mM, MgCl2 1.0 mM, CaCl2. 2H2O 1.3 mM, NaH2PO4.2H2O 0.2 mM and Na2HPO4. 7H2O 1.0 mM, pH 7.2). A stabilization period of 2 h was maintained and five basal samples were collected at 20 minutes intervals. The compound of Example 18 or vehicle was administered and dialysate samples were collected at 20 minutes interval for an additional period of 4 hours. Dialysates were stored below −70° C. until quantitation of acetylcholine.
Acetylcholine in dialysate was quantified in the calibration range of 0.103 nmol-103.497 nmol using LC-MS/MS method. […]

Compound: Nc1c(Cl)cc(C(=O)NCC2CCN(CC3CCOCC3)CC2)c2ncccc12.O=C(O)C(O)C(O)C(=O)O [Example 13, 5-Amino-6-chloro-N-{[1-(tetrahydro-2H-pyran-4-ylmethyl)-4-piperidinyl]methyl} quinoline-8-carboxamide L(+)-tartarate]
- increase in the mice brain cortical sAPPα levels ([1]; 0.3 mg/kg): 39%
- increase in the mice brain cortical sAPPα levels ([1]; 1.0 mg/kg): 41%
- increase in the mice brain cortical sAPPα levels ([1]; 3.0 mg/kg): 46%
- increase in the mice brain cortical sAPPα levels ([1]; 10.0 mg/kg): 66%
- Area under the curve of acetylcholine change, frontal cortex (in words) ([2]; 10.0 mg/kg, vs vehicle, p<0.05): significant
- acetylcholine levels from the frontal cortex (in words) ([2]; 3.0 and 10.0 mg/kg, male Wistar rats): dose dependent increase
